Reference: patent US6476019B1, “Spirocyclic ligands for sigma receptors, and libraries and methods of use thereof” (Sepracor Inc., priority 1999, dated 2002)
Values after ≈ are worked out from the molar mass of the structure shown. Read-outs that look alike come from different tables or passages of the source.

Tests used:
DNA Synthesis = test: Safety Assessment: DNA Synthesis
RedOx State = test: Safety Assessment: RedOx State
[1] = target: T1, guinea pig sigma receptor (Cavia porcellus, UniProt Q60492); test: Guinea pig sigma receptor assay; assay type: binding; conditions: read-out: IC50 Against Guinea Pig Sigma Receptor
T1 construct: having guinea pig as a receptor source; from tissue; host or cells: guinea pig
Method: (§1) The ability of test compounds to displace sigma ligands in vitro was determined by the methods of de Costa et al. (FEBS Lett. 251:53 (1989)) and De Haven-Hudkine et al. (Eur. J. Pharmacol. 227:372 (1992)) having guinea pig as a receptor source. Whereas, the methods of Gamapatju et al. (J. Pharm.&Exp. 289:251 (1999)) were utilized for human sigma receptors.

[2] = target: T2, sigma-1 receptor (guinea pig brain) (Cavia porcellus, UniProt Q60492); test: Antagonism of haloperidol binding to guinea pig sigma-1 receptors; conditions: sigma-1, guinea pig brain; for % Inhibition: test concentration not given
T2 construct: from tissue; host or cells: guinea pig brain

[3] = Pharmacokinetics in a single rat; assay type: in vivo; conditions: for concentration at 4 h: brain, 4 h post dose, read-out: Brain Tissue Distribution (4 h post dose, ng/g tissue); for concentration at 4 h / clearance / AUC(0-t): iv; for concentration at 4 h / AUC(0-t) / T1/2α / T1/2β: rat; for clearance / AUC(0-t): plasma; for clearance / Vb / Vc: rat (270 g); for AUC(0-t): read-out: AUC0-4h
Method: Pharmacokinetic properties of the compounds were evaluated in a single rat after dosing 4 and 5 mg/kg, respectively. The dose was well tolerated by the animal. The data below is based on a 270 g rat. Numerous time points were taken during a 4 hour period where a 0.1 mL volume of plasma was transferred to a 1.4 mL polypropylene vial and 0.4 mL of chilled methanol (0° C.) was added. The resulting percipitate was centrifuged at 7000 rpm at 4° C. for 5 min. The resulting supernatant was analysed by HPLC using a sample volume of 0.05 mL alongside standard solutions prepared by “spiking” known amounts of the compounds into the control plasma. Standard solution of the compounds were prepared in methanol.

Permeability = assay type: in vitro ADME; conditions: not told; read-out: Permeability PupperX10^6 cm/s
CYP2D6 = CYP2D6 (Homo sapiens, UniProt P10635); test: In Vitro Metabolism (isozymes of P450) CYP2D6
CYP1A2 = target: T3, CYP1A2 (Homo sapiens, UniProt P05177); test: In Vitro Metabolism (isozymes of P450) CYP1A2
T3 sequence (P05177 1-516): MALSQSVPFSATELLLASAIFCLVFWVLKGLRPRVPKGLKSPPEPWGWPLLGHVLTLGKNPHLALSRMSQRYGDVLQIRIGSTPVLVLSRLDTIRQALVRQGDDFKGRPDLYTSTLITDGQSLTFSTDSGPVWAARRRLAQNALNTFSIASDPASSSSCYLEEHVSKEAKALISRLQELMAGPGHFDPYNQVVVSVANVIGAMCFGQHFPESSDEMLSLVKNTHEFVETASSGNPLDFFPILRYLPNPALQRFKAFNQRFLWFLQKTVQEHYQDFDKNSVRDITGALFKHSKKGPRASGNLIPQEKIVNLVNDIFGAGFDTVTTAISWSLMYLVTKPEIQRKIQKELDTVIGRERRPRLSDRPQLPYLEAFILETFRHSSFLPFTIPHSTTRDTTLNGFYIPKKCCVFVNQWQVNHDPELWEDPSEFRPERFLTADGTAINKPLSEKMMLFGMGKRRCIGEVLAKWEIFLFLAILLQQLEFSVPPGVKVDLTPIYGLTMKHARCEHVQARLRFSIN

CYP3A4 = CYP3A4 (Homo sapiens, UniProt P08684); test: In Vitro Metabolism (isozymes of P450) CYP3A4
CYP2C19 = CYP2C19 (Homo sapiens, UniProt P33261); test: In Vitro Metabolism (isozymes of P450) CYP2C19
sigma-2 = sigma-2 (Rattus norvegicus, UniProt Q5U3Y7); test: Behavioral receptor assays: sigma-2; assay type: binding; conditions: read-out: Receptors (IC50) sigma-2
Method: (§2) Various compounds of the present invention (19, 31, and 32) were evaluated in a group of assays based on mammalian cellular receptors associated with behavior. The group consisted of assays base on human dopamine D1, D2L, D3, D4.2, D4.4, D4.7, and D5 receptors, and the transporter; human serotonin 5-HT1A, 5-HT1B, 5-HT1D, 5-HT2A, 5-HT2B, 5-HT2C, 5-HT3, 5-HT5A, 5-HT6, and 5-HT7 receptors, and the human serotonin transporter; guinea pig 5-HT4 and sigma-1 receptors; rat sigma-2 and muscarinic receptors; and human NK1-3 receptors. The following table presents a subset of the results of these assays.

CYP2C9 = CYP2C9 (Homo sapiens, UniProt P11712); test: In Vitro Metabolism (isozymes of P450) CYP2C9
Cell Viability = test: Safety Assessment: Cell Viability
sigma-1 receptors = sigma-1 receptors (Cavia porcellus, UniProt Q60492); test: Behavioral receptor assays: sigma-1; assay type: binding; conditions: guinea pig
Method: as §2

Protein Synthesis = test: Safety Assessment: Protein Synthesis
Caspase-3 = test: Safety Assessment: Caspase-3 Induction
GSH Level = test: Safety Assessment: GSH Level
human sigma receptor = human sigma receptor (Homo sapiens, UniProt Q99720); test: Human sigma receptor assay; assay type: binding; conditions: read-out: IC50 Against Human Sigma Receptor
Method: as §1

Membrane Integrity = test: Safety Assessment: Membrane Integrity

T2 sequence (Q60492 whole entry): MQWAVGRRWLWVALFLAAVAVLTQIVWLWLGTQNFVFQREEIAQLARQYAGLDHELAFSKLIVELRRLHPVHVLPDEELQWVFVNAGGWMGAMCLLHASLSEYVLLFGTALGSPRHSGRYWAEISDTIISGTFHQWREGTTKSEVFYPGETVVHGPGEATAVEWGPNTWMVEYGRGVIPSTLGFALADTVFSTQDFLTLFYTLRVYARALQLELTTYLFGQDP
Chain of CYP3A4 (P08684 whole entry): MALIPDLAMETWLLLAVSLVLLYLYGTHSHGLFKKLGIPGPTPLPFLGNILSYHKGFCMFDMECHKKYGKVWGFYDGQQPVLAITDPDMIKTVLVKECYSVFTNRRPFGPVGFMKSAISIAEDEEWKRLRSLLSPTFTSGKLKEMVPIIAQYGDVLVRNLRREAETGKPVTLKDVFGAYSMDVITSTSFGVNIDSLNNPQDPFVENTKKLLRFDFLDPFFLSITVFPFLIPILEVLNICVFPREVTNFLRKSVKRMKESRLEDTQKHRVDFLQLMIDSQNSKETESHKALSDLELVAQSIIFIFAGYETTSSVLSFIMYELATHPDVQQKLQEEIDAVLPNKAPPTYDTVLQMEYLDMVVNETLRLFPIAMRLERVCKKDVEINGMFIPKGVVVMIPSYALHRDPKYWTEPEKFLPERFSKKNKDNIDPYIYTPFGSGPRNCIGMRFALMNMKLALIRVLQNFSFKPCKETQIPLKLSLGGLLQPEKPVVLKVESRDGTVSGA
Chain of sigma-2 (Q5U3Y7 whole entry): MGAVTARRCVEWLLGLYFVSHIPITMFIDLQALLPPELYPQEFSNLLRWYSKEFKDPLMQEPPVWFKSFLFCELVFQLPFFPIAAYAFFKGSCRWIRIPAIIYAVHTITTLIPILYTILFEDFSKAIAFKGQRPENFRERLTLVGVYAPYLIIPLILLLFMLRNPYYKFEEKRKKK
Chain of CYP2C19 (P33261 whole entry): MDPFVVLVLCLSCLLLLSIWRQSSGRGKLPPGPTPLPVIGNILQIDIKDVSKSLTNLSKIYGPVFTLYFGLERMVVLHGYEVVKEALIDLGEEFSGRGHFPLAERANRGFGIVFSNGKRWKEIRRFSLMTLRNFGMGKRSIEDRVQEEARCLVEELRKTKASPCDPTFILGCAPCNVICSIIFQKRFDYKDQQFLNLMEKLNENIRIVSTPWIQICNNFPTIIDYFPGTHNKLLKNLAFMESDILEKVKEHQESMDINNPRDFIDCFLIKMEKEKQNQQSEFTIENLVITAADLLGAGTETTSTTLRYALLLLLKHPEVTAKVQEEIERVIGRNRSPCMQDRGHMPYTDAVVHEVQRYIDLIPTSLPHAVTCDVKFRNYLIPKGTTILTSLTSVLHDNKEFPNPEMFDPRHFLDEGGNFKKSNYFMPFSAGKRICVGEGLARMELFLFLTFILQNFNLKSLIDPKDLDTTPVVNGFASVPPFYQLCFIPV
Chain of CYP2D6 (P10635 whole entry): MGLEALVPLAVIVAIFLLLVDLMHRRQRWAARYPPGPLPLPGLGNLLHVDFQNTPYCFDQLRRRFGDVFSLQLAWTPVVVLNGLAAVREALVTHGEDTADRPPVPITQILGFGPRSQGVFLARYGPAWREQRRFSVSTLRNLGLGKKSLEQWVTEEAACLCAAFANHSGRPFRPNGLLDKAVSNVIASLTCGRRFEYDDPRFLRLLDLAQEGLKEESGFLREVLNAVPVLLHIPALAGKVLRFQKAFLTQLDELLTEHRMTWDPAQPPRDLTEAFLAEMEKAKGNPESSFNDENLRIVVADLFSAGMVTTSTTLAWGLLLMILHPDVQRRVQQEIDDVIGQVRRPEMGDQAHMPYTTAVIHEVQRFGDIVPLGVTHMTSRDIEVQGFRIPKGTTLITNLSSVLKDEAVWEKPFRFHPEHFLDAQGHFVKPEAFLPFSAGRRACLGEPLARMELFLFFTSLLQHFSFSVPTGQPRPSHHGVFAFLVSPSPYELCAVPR
Chain of CYP2C9 (P11712 whole entry): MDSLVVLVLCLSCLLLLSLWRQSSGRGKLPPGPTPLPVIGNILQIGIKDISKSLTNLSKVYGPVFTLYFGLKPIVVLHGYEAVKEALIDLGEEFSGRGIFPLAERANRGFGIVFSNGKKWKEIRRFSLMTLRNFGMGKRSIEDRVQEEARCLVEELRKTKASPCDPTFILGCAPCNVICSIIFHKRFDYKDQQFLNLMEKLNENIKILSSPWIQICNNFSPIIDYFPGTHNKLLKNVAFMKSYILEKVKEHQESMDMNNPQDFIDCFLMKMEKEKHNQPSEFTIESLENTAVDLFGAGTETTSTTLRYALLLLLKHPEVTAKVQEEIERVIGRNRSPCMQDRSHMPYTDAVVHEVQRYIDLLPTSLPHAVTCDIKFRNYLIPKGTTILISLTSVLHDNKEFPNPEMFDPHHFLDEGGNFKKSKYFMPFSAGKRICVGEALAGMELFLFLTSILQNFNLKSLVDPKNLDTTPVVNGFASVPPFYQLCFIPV
Chain of sigma-1 receptors (Q60492 whole entry): as the sequence (Q60492 whole entry) above
T1 sequence (Q60492 whole entry): as above
Chain of human sigma receptor (Q99720 whole entry): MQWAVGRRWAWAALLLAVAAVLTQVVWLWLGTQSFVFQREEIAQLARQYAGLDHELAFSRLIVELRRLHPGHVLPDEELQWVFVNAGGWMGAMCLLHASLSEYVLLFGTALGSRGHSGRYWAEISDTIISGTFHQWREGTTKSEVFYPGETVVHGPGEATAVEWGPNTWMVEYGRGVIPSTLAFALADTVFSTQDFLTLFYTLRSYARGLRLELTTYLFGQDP

Row | Compound | DNA Synthesis (DNA Synthesis) | Metabolic Stability (% parent remaining) (Metabolic Stability) | RedOx State (RedOx State) | IC50 [1] | IC50 [2] | % Inhibition [2] | Log D7.5 (Log D7.5) | Papp (Permeability) | CYP2D6 (CYP2D6) | CYP1A2 (CYP1A2) | CYP3A4 (CYP3A4) | CYP2C19 (CYP2C19) | IC50 (sigma-2) | CYP2C9 (CYP2C9) | Cell Viability (Cell Viability) | IC50 (sigma-1 receptors) | Protein Synthesis (Protein Synthesis) | Caspase-3 Induction % Induction (Caspase-3) | GSH Level (% Control) (GSH Level) | fraction unbound (Protein Binding) | other results
1 | OC1CCC2(CCN(Cc3ccc(F)cc3)CC2)Nc2ccccc21 (racemic) [Compound 32, 1′-(4-fluorobenzyl)-3,4-dihydrospiro[5H-1-benzazepine-2(1H)-4′-piperidin]-5ol] | <10 % inhibition | 1 % parent remaining | 17 % inhibition | < 10 nM | < 10 nM | >50% | 3.7 | 22.4 ×10⁻⁶ cm/s | 102 % inhibition | 20 % inhibition | 67 % inhibition | 42 % inhibition | < 1000 nM | 11 % inhibition | <10 % inhibition | < 10 nM | <10 % inhibition | <10 % Induction | <10 % Control | < 0.01 | concentration at 4 h ([3]; 5 mg/kg i.v.): 134 ng/g; clearance ([3]; 5 mg/kg i.v.): 31.7 mL/min; AUC(0-t) ([3]; 5 mg/kg i.v., 10% hydroxypropyl-p-cyclodextrin): 700 ng·h/mL; Vb ([3]; 5 mg/kg i.v.): 42 L; Vc ([3]; 5 mg/kg i.v.): 1.1 L; T1/2α ([3]; 5 mg/kg i.v.): 12.6 min; T1/2β ([3]; 5 mg/kg i.v.): 120 min; IC50 (human sigma receptor): < 100 nM; Membrane Integrity (Membrane Integrity): <10 % inhibition; solubility (Solubility): 83 µM (≈ 28.3 µg/mL)
2 | O=C1CCC2(CCN(Cc3ccc(F)cc3)CC2)Nc2ccccc21 [Compound 31, 1′-(4-fluorobenzyl)-3,4-dihydrospiro[5H-1-benzazepine-2(1H)-4′-piperidin]-5-one] | <10 % inhibition | 44 % parent remaining | 28 % inhibition | < 10 nM | < 10 nM | >50% | 2.19 | 22.9 ×10⁻⁶ cm/s | 44 % inhibition | <10 % inhibition | 22 % inhibition | 28 % inhibition | < 1000 nM | <10 % inhibition | <10 % inhibition | < 10 nM | 65 % inhibition | <10 % Induction | <10 % Control | 0.04 | concentration at 4 h ([3]; 4 mg/kg i.v.): 70 ng/g; clearance ([3]; 4 mg/kg i.v.): 10.2 mL/min; AUC(0-t) ([3]; 4 mg/kg i.v., Peg400:Dextrose (2:3 v/v)): 1480 ng·h/mL; Vb ([3]; 4 mg/kg i.v.): 0.65 L; Vc ([3]; 4 mg/kg i.v.): 0.23 L; T1/2α ([3]; 4 mg/kg i.v.): 7.2 min; T1/2β ([3]; 4 mg/kg i.v.): 48 min; IC50 (human sigma receptor): < 100 nM; Membrane Integrity (Membrane Integrity): <10 % inhibition; solubility (Solubility): 192 µM (≈ 65 µg/mL)
